{"source": "patent US10959984B2", "about": "“Methods for treating cancer with RORγ inhibitors” (THE REGENTS OF THE UNIVERSITY OF CALIFORNIA, priority 2015, dated 2021)", "key": {"AR-positive PCa cells": {"test_system": "AR-positive PCa cells", "assay": "Prostate cancer cell growth and survival (cell viability / cell growth)", "format": "cell-based, human", "description": "(§1) For cell viability, cells were seeded in 96-well plates at 1500-2500 cells per well (optimum density for growth) in a total volume of 100 μl media. Serially diluted compounds in […] of media were added to the cells 12 hours later. After 4 days of incubation, Cell-Titer GLO reagents (Promega) were added and luminescence was measured on GLOMAX microplate luminometer (Promega), according to the manufacturer's instructions. All experimental points were set up as sextuplicate as biological replication and the entire experiments were repeated three times. The data are presented as percentage of viable cells with vehicle treated cells set as 100. The estimated in vitro IC50 values were calculated using GraphPad Prism 6 software.\n(§2) For apoptosis, Terminal deoxynucleotidyl transferase-mediated dUTP nick end labeling (TUNEL) was performed by using in situ cell death detection kit (Roche) as previously described^56. The results are expressed as a percentage of apoptotic cell number/total cell number. Caspase-3/7 activity was measured using a luminescent caspase-Glo 3/7 assay kit (Promega Corporation, Madison, USA) following the manufacturer's instructions. For cell growth, cells were seeded in 6-well plates at 2×10^5 per well and treated as indicated. Total viable cell numbers were counted using a Coulter cell counter. For colony formation, 800 cells were seeded in a well of 6-well plates and cultured for 14 days with the medium changed every 3 days. When the cell clone grew visible, the medium was removed and the cells were fixed with […] formalin for 10 minutes. Then the plates were washed with PBS for two times and the cell colonies were stained with 0.2% crystal violet (in 10% formalin) for 15 minutes. The numbers of cell colonies were counted after washed 5 times by PBS. The above assays were performed in triplicates and the entire experiments were repeated three times."}, "AR-negative PCa cells": {"test_system": "AR-negative PCa cells", "assay": "Prostate cancer cell growth and survival, AR-negative cells", "format": "cell-based, human", "description": "as §1, §2"}, "AR": {"test_system": "AR", "assay": "Anti-AR ChIP-seq", "format": "cell-based, human", "conditions": "C4-2B cells, 5 μM, 24 hours", "description": "C4-2B cells were treated with vehicle or SR2211 (5 μM) for 24 hours before harvested for ChIP-seq. ChIP-seq experiments were performed as described^65. Anti-AR ChIP-seq was repeated in two independent experiments. Antibodies used were against AR (Santa Cruz; sc-815); RNA Pol II (Santa cruz; sc-899); H3K4me2 (Abcam ab32356); H3K4me3 (Abcam; ab8580); H3 (acetyl K27) (Abcam; ab4729). Libraries were quantified with the Bioanalyzer 2100 (Agilent) and sequenced on the Illumina HiSeq 2000 Sequencer (BGI, Hong Kong). Sequencing tags were mapped against the Homo sapiens (Human) reference genome (hg19) using Bowtie 2^66. Uniquely mapped tags were used for peak calling by MACS(2.1.0)^67 to identify regions of ChIP-Seq enrichment over background. A q value threshold of enrichment of 5×10^−2 was used for all data sets. Normalized genome-wide signal coverage tracks from raw read alignment files were built by MACS2, UCSC tools (http://hgdownload.cse.ucsc.edu/admin/exe/linux.x86_64/bedGraphToBigWig/bedClip) and bedTools (http://code.google.com/p/bedtools/). Visualization of ChIP-seq signal at enriched genomic regions (avgprof and heatmap) was achieved by using ngs.plot (https://github.com/shenlab-sinai/ngsplot). ChIP-seq data have been deposited to NCBI-GEO with accession code GSE72714."}, "CRPC-VCaP xenografts": {"test_system": "CRPC-VCaP xenografts", "assay": "Castration-resistant VCaP (CRPC-VCaP) xenograft tumor growth", "format": "in vivo", "conditions": "castrated mice, SR2211 alone, 5 mg/kg i.p.", "description": "Four-week-old male SCID C.B17 mice (for C4-2B and VCaP) or BALB/c nu/nu athymic mice (for 22Rv11 and PC-3) were purchased from Harlan Inc. For establishing tumors, 2×10^6 cells were suspended in total of 100 μL PBS/Matrigel (1:1) and implanted subcutaneously into the dorsal flank on both sides of the mice. Animal group size of six or more was estimated to have a high statistic power, based on power calculation (http://www.biomath.info/power/) and previous studies involving the same xenograft models^34,68. When the tumor volume was approximately 80 mm^3, the mice were randomized and then treated intraperitoneally (i.p.) with 100 μl of either vehicle or RORγ antagonists SR2211, XY011/8k (in a formulation of 15% Cremophor EL, Calbiochem, 82.5% PBS, and 2.5% DMSO) for five times per week. Tumor growth was monitored by calipers with volume calculated using the equation: (π/6 (length×width2)). Body weight during the course of the study was also monitored. At the end of the studies mice were killed and tumors were dissected and weighed. Additionally, prostate, seminal vesicle, testis, kidney, heart, lung, liver, epididymal fat pad and spleen were harvested and weighed. To assess the effect of combining RORγ antagonists and ENZ on the growth of castrated-resistant VCaP xenografts (CRPC-VCaP), first, SCID C.B17 mice were injected with VCaP cells as above to establish the tumors. […]"}, "MCF-7-TamR cell line": {"test_system": "MCF-7-TamR cell line", "assay": "Growth of tamoxifen-resistant breast cancer cells", "format": "cell-based, human", "conditions": "MCF-7 TamR cells, in combination with tamoxifen", "description": "Using a CellTiter-GLO assay, the viability of cells of different cancer types was measured after treatment with different concentrations of RORγ small molecule inhibitors for 4 days."}, "[1]": {"test_system": "A549 human lung cancer cells xenograft tumors", "assay": "A549 lung cancer xenograft tumor growth", "format": "in vivo, mice", "conditions": "A549 xenografts, 5 mg/kg/day i.p., six weeks", "description": "FIG. 32A: Cell viability, as measured by Cell-Titer GLO, of different lung cancer cells treated with the indicated concentrations of SR2211 for 4 days. FIG. 32B: Cell viability, as measured by Cell-Titer GLO, of different lung cancer cells treated with the indicated concentrations of GSK805 for 4 days. FIG. 32C: Half-maximal inhibitory concentration (IC50) for SR2211 and GSK805 in indicated lung cancer cell lines treated for 4 days. FIG. 32D: Effects of the indicated treatments (SR2211, 5 mg/kg i.p. five times per week; or vehicle) on the growth of lung cancer A549 xenografts (n=6 mice per group). Treatment started when A549 tumors reached approximately 100 mm^3. Mean tumor volume±s.e.m., Mean tumor weight±s.e.m. and representative tumor images are shown. P<0.01."}}, "note": "“Also recorded” adds a separate entry of the source.", "data": [{"smiles": "OC(c1ccc(-c2ccc(CN3CCN(Cc4ccncc4)CC3)cc2)c(F)c1)(C(F)(F)F)C(F)(F)F", "note": "[SR2211, 2-Fluoro-4′-[[4-(4-pyridinylmethyl)-1-piperazinyl]methyl]-a,a-bis (trifluoromethyl)-[1,1′-biphenyl]-4-methanol]", "values": [{"measurement": "growth inhibition in other AR-positive PCa cell models", "setting": "AR-positive PCa cells; 22Rv1, VCaP, LNCaP, LAPC4 and PC346C", "result": "strong growth inhibition"}, {"measurement": "inhibition of AR-positive PCa cell growth and survival", "setting": "AR-positive PCa cells; different cell line models", "result": "potent inhibition of AR-positive PCa cell growth and survival"}, {"measurement": "inhibition of cell growth and survival in AR-negative cells", "setting": "AR-negative PCa cells", "result": "not in the AR-negative cells"}, {"measurement": "genome-wide AR binding to its target loci", "setting": "AR", "result": "dramatic inhibition of genome-wide AR binding"}, {"measurement": "CRPC tumor growth", "setting": "CRPC-VCaP xenografts", "result": "very potent in inhibition of the CRPC tumor growth"}, {"measurement": "sensitization of tamoxifen-resistant breast cancer cells to tamoxifen", "setting": "MCF-7-TamR cell line", "result": "able to sensitize tamoxifen-resistant breast cancer cells to tamoxifen; also recorded: sensitized MCF-7 TamR cells to tamoxifen"}, {"measurement": "tumor growth of xenograft lung tumor model", "setting": "[1]", "result": "strongly inhibited tumor growth"}]}]}
